From patent US20250026733A1, “DEUTERATED ANALOGS OF PYROLE INHIBITORS OF ERK, SYNTHESIS THEREOF AND INTERMEDIATES THERETO” (BIOMED VALLEY DISCOVERIES, INC., priority 2022, published 2025)
Like-named read-outs stand apart in the source and are kept apart here.

Assays:
CYP1A2 mRNA expression [1] = conditions: human, hepatocytes, 24 h
Protocol: (§3) A single preparation of characterized cryopreserved human hepatocytes isolated from non-transplantable human livers was treated in this study. Triplicate wells for each of the cultures were treated in 48-well plates with supplemented MCM (37±2° C.) containing 0.1% v/v DMSO (solvent control), one of three concentrations of each test article (1, 10 and 20 μM) or positive control CYP enzyme inducers omeprazole (50 μM), phenobarbital (1000 μM) or rifampin (20 μM). The cultures were incubated in a humidified culture chamber (37±2° C. at 95% relative humidity, 95/5% air/CO2). Approximately 24 h after treatment, hepatocytes were lysed in Buffer RLT reagent containing β-mercaptoethanol (100:1). The medium was aspirated, and Buffer RLT was added to each well. The cell lysates were prepared by repeated pipetting and shaking. Total RNA was isolated using the RNeasy Mini Kit. RNA quality and concentration were determined by measuring absorbance at 260 and 280 nm on a plate reader. Single-stranded cDNA was prepared from RNA with the RT Master Mix. The RT Master Mix comprises 10×RT buffer, 25× deoxyNTPs, 10× Random primers, RNase Inhibitor (20 U/μL), MultiScribe reverse transcriptase (50 U/μL) and RNase-free water. The RT Master Mix was added to each RNA sample to complete the components of the reaction. No template controls (NTCs) were included in the analysis. For the NTC reactions, RNase-free water was added in place of the RNA sample. The prepared cDNA samples were stored at −20±5° C. following analysis by qRT-PCR. Each PCR was performed in quadruplicate. A Primer Mix was prepared for each Gene Expression assay. A typical Primer Mix contained TaqMan Fast Advanced Master Mix (1×), Gene Expression Assay (1×, 900 nM forward and reverse primers) and RNase-free water. The Reaction Mix was prepared by adding the Primer Mix to cDNA. A percentage of samples (no less than 10%) included NAC (no amplification control) samples. […] Reactions were analyzed on a PCR sequence detection system. The relative quantity of the target cDNA compared with that of the control cDNA (GAPDH) was determined by the ΔΔCt method. Relative quantitation measures the change in mRNA expression in a test sample relative to that in a control sample (e.g., DMSO). This method assumes that the efficiency of the target amplification and the efficiency of the endogenous control amplification are approximately equal.

CYP1A2 mRNA expression [2] = experiment: In-vitro CYP induction study, CYP1A2 mRNA in cultured human hepatocytes; conditions: approximately 24 h
Protocol: as §3

CYP2C19 = target: T1, CYP2C19 (Homo sapiens, UniProt P33261); experiment: In-vitro CYP inhibition study, CYP2C19; type: in vitro ADME; conditions: human liver microsomes, substrate S-Mephenytoin (60 μM)
T1 construct: from tissue; host or cells: human liver microsomes, mixed-gender pool of 200
Protocol: (§1) Incubations were conducted using a cocktail of seven prototypical CYP substrates to ascertain the potential of each test article to inhibit the metabolism of concomitantly administered drugs. A mixed-gender pool of 200 human liver microsomal samples was used for this study. Incubations were conducted at approximately 37° C. in 200 μL incubation mixtures (pH 7.4) containing water, potassium phosphate buffer (50 mM), MgCl2 (3 mM), EDTA (1 mM), an NADPH regenerating system (NADP [1 mM], glucose 6 phosphate [5 mM], glucose 6 phosphate dehydrogenase [1 Unit/mL]), and probe substrate (i.e., a seven substrate cocktail) at the final concentrations indicated in Table 9. Reactions were initiated by the addition of NADPH-regenerating system and were automatically terminated at approximately 5 minutes by the addition of internal standard mixed in stop reagent, acetonitrile. The samples were centrifuged at 920×g for 10 minutes at 10° C. The supernatant fractions were analyzed by LC-MS/MS. To examine its ability to act as a time-dependent inhibitor of CYP enzymes, each test article (at the same concentrations used to evaluate direct inhibition, (i.e. 0, 0.02, 0.06, 0.2, 0.6, 2, 6, 20 μM) was pre-incubated at 37±2° C. with NADPH-fortified human liver microsomes for approximately 30 minutes. The pre-incubations were initiated by the addition of NADPH-regenerating system. After 30 min, probe substrate incubations were initiated by the addition of probe substrate cocktail. Incubations were terminated and samples were analyzed by LC-MS/MS. When inhibition was observed, the data were processed with a LIMS for the determination of IC50 values by utilizing the Levenberg-Marquardt algorithm to perform non-linear regression fitting of the data to the following 4-parameter sigmoidal-logistic IC50 equation:
(§2) As percent of control values are utilized, the minimum value (Min) is set to zero and the maximum value (Max) is set to 100 (or other values, as appropriate). The LIMS calculates an IC50 value only when it lies within the concentration range of the inhibitor studied. Therefore, when an IC50 value falls outside the concentration range studied, the IC50 values are reported to be greater than the highest concentration of the test article evaluated.

CYP3A4/5 = experiment: In-vitro CYP inhibition study, CYP3A4/5; type: in vitro ADME; conditions: both sexes, human, human liver microsomes, pH 7.4, probe Midazolam (3 μM), substrate Midazolam (3 μM)
Protocol: as §1, §2

CYP2B6 mRNA expression = experiment: In-vitro CYP induction study, CYP2B6 mRNA in cultured human hepatocytes; conditions: 20 μM, approximately 24 h
Protocol: as §3

CYP2C8 = target: T2, CYP2C8 (Homo sapiens, UniProt P10632); experiment: In-vitro CYP inhibition study, CYP2C8; type: in vitro ADME; conditions: human liver microsomes, substrate Paclitaxel (5 μM)
T2 construct: from tissue; host or cells: human liver microsomes, mixed-gender pool of 200
T2 sequence (P10632 1-490): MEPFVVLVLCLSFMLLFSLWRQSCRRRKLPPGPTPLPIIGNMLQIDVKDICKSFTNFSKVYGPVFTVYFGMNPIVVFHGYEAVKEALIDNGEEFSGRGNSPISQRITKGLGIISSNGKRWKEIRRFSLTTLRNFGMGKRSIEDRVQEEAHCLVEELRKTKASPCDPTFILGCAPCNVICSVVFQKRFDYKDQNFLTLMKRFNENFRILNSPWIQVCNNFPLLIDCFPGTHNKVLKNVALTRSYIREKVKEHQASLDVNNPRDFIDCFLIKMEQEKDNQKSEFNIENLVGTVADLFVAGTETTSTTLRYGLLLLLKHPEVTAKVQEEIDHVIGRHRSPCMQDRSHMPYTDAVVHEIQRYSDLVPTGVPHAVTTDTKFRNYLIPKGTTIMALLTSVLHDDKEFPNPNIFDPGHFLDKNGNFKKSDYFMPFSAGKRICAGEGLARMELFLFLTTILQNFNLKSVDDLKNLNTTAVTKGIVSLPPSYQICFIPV
Protocol: as §1, §2

CYP1A2 = target: T3, CYP1A2 (Homo sapiens, UniProt P05177); experiment: In-vitro CYP inhibition study, CYP1A2; type: in vitro ADME; conditions: human liver microsomes, substrate Phenacetin (90 μM)
T3 construct: from tissue; host or cells: human liver microsomes, mixed-gender pool of 200
T3 sequence (P05177 1-516): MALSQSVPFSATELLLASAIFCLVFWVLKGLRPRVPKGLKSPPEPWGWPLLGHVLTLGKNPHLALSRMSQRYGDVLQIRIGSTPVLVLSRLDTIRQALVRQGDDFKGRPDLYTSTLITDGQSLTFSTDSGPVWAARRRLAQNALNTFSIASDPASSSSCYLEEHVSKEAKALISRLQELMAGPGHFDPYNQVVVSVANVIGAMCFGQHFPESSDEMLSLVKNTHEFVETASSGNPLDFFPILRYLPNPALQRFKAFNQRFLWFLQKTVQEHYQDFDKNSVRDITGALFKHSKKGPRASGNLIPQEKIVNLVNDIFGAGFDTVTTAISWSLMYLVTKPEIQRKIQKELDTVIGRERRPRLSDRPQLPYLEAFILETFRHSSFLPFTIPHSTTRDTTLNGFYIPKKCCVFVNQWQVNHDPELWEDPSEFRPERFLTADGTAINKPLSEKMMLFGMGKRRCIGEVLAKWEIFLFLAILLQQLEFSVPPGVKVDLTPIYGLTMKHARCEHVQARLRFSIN
Protocol: as §1, §2

T1 sequence (P33261 whole entry): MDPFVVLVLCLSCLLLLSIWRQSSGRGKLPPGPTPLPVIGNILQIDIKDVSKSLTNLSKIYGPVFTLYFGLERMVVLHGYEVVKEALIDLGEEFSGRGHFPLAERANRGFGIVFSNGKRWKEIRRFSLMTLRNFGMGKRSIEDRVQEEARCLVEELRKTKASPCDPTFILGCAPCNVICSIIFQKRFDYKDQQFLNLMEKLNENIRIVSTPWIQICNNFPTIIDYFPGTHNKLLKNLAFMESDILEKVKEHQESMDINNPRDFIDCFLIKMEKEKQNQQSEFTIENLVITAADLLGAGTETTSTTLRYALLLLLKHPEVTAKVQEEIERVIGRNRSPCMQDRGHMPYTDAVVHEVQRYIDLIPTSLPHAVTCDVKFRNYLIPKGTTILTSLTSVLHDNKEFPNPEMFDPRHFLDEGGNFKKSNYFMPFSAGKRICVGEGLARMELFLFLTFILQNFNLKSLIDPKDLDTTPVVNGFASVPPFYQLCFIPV

Fold Change in mRNA Expression of CYP1A2 (CYP1A2 mRNA expression [1]; 1 μM) [fold] | Fold Change in mRNA Expression of CYP1A2 (CYP1A2 mRNA expression [1]; 20 μM) [fold] | Fold Change in mRNA Expression of CYP1A2 (CYP1A2 mRNA expression [2]; 10 μM) [fold] | IC50 (CYP2C19; preincubation 0 min) [µM] | IC50 (CYP2C19; preincubation 30 min) [µM] | IC50 at 5 min (CYP3A4/5; preincubation 0 min) [µM] | IC50 at 5 min (CYP3A4/5; preincubation 30 min) [µM] | Fold Change in mRNA Expression of CYP2B6 (CYP2B6 mRNA expression) [fold] | IC50 (CYP2C8; preincubation 0 min) [µM] | IC50 (CYP2C8; preincubation 30 min) [µM] | IC50 (CYP1A2; preincubation 0 min) [µM] | IC50 (CYP1A2; preincubation 30 min) [µM] | Fold Change in mRNA Expression of CYP1A2 (CYP1A2 mRNA expression [2]; 1 μM) [fold] | Fold Change in mRNA Expression of CYP1A2 (CYP1A2 mRNA expression [1]; 10 μM) [fold] | Fold Change in mRNA Expression of CYP1A2 (CYP1A2 mRNA expression [2]; 20 μM) [fold] | SMILES
3.57 | 9.52 | 12.1 | 10 | 12 | > 20 | 13 | 2.44 | 10 | 12 | > 20 | 19 |  |  |  | [2H]C([2H])([2H])C(Nc1cc(-c2c[nH]c(C(=O)N[C@H](CO)c3cccc(Cl)c3)c2)c(Cl)cn1)C([2H])([2H])[2H] [Formula 19, 4-(5-chloro-2-((propan-2-yl-1,1,1,3,3,3-d6)amino)pyridin-4-yl)-N-(1-(3-chiorophenyl)-2-hydroxyethyl)-1H-pyrrole-2-carboxamide]
 | 4.00 | 8.51 | 19 | 19 | > 20 | 17 | 2.22 | 19 | 19 | > 20 | > 20 | 2.22 |  |  | Cl.[2H]C(C)(C)Nc1cc(-c2c[nH]c(C(=O)N[C@H](CO)c3cccc(Cl)c3)c2)c(Cl)cn1 [Formula 21A]
3.73 | 6.42 | 6.63 | 8.5 | 9.2 | > 20 | 14 | 2.43 | 8.5 | 9.2 | > 20 | 13 |  |  |  | CC(C)Nc1cc(-c2c[nH]c(C(=O)N[C@H](CO)c3cccc(Cl)c3)c2)c(Cl)cn1 [Ulixertinib, reference compound]
3.02 |  |  | 9.6 | 11 | > 20 | 14 | 2.54 | 9.6 | 11 | > 20 | 17 |  | 5.94 | 7.56 | [2H]C([2H])([2H])C([2H])(Nc1cc(-c2c[nH]c(C(=O)N[C@H](CO)c3cccc(Cl)c3)c2)c(Cl)cn1)C([2H])([2H])[2H] [Formula 18, 4-(5-chloro-2-((propan-2-yl-d7)amino)pyridin-4-yl)-N-(1-(3-chlorophenyl)-2-hydroxyethyl)-1H-pyrrole-2-carboxamide]
